Data published in patent US7375124B2, “Use of α-phenylthiocarboxylic and α-phenyloxycarboxylic acids with serum-glucose-lowering and serum-lipid-lowering activity” (Sigma-Tau Industrie Farmaceutiche Riunite S.p.A., priority 2002, dated 2008).

Tests used:
[1] = test system: C57BL/KsJ db/db mouse; conditions: in vivo
From the text: (§1) Plasma levels of glucose, insulin, triglycerides, cholesterol, free fatty acids and urea were checked for a well-matched distribution of mice in the treatment groups.
(§2) At the start of treatment the body weights of the mice were checked and arrangements were made for monitoring water and feed consumption.
(§3) In the course of the experiment, serum glucose levels, oral glucose tolerance test (OGTT) findings, a number of lipid status parameters and weight gain were monitored.

[2] = test system: C57BL/KsJ db/db mouse; experiment: Antidiabetic and serum-lipid-lowering activity in the db/db mouse (Experiments I and II); conditions: Experiment I; for Variation % (AUC glucose at OGTT) vs control / AUC glucose at OGTT: OGTT glucose 3 g/kg; for AUC glucose at OGTT: 5 hours after last treatment; for AUC glucose at OGTT / Glucose (plasma) / Fructosamine (plasma) / HDL-choles. (plasma) / Triglycerides (plasma) / Glucose: mean ± S.E.; for Variation % (HDL-cholesterol) vs control / Variation % (triglycerides) vs control / Glucose (plasma) / Variation % (fructosamine) vs control / Variation % (plasma glucose) vs control / Fructosamine (plasma) / HDL-choles. (plasma) / Triglycerides (plasma): after 25 days' treatment; for Glucose (plasma): postabsorption (fasting 9 a.m. to 4.30 p.m.); for Glucose (plasma) / Variation % (fructosamine) vs control / Variation % (plasma glucose) vs control / Fructosamine (plasma) / HDL-choles. (plasma) / Triglycerides (plasma): 7.5 hours after last treatment; for Glucose: blood
From the text: as §1, §2, §3

[3] = after 12 days' treatment, feeding state, approx. 15 hours after last treatment
[4] = after 12 days' treatment, postabsorption, 8 hours after last treatment
[5] = after 18 days' treatment, fasting 18 hours
[6] = after 18 days' treatment, fasting 18 hours, 6 hours after last treatment
[7] = after 12 days' treatment, postabsorption (fasting 9 a.m. to 5 p.m.), 8 hours after last treatment
[8] = db/db mice, oral twice daily, after 12 days' treatment, feeding state, approx. 15 hours after last treatment

Row | SMILES | Final b.w. [1] [g] | Initial b.w. [1] [g] | Variation % (final b.w.) vs control [1] | Variation % (initial b.w.) vs control [1] | Variation % (glucose) vs control [2, 3] | Variation % (glucose) vs control [2, 4] | Variation % (AUC glucose at OGTT) vs control ([2]; after 18 days' treatment) [%] | AUC glucose at OGTT [2, 5] [a.u.] | Variation % (glucose) vs control [2, 6] | Variation % (HDL-cholesterol) vs control [2] | Variation % (triglycerides) vs control [2] [%] | Glucose (plasma) [2] [mg/dL] | Variation % (fructosamine) vs control ([2]; postabsorption) | Variation % (plasma glucose) vs control ([2]; postabsorption) | Fructosamine (plasma) ([2]; postabsorption) | HDL-choles. (plasma) ([2]; postabsorption) [mg/dL] | Triglycerides (plasma) ([2]; postabsorption) | Glucose [2, 7] [mg/dL] | Glucose [2, 6] [mg/dL] | Glucose [2, 8] [mg/dL]
1 | CC(C)(Oc1ccc(CCNC(=O)c2ccc(Cl)cc2)cc1)C(=O)O [Bezafibrate, bezafibrate, reference compound] | 35.2 ± 1.3 | 33.7 ± 0.7 | +24% | +6% | +3% | +2% | −13 | 44476 ± 1827 | −13% | +14% | −7 | 536 ± 22 | +26% | +18% | 1.01 ± 0.04Δ mM | 93.8 ± 3.8 | 88.3 ± 12.7 mg/dL | 421 ± 30 | 298 ± 21 | 503 ± 21
2 | CC(C)OC(=O)C(C)(C)Oc1ccc(C(=O)c2ccc(Cl)cc2)cc1 [Fenofibrate, fenofibrate, reference compound] | 34.5 ± 1.0 | 33.3 ± 0.7 | +22% | +5% | −4% | −1% | −12 | 45192 ± 1546 | +12% | +18% | −30 | 553 ± 30 | +15% | +21% | 0.92 ± 0.02Δ mM | 96.4 ± 4.2 | 66.5 ± 3.5Δ mg/dl | 409 ± 11 | 384 ± 20 | 466 ± 8
